Results reported in patent publication US4387218A, “Anthracycline antibiotics FA-1180 B and B1, or salts thereof” (priority 1979, dated 1983).
≈ marks a conversion by molar mass, not a printed value. Where a name gives a salt, the structure may show the parent alone. Read-outs that look alike come from different tables or passages of the source.

Key:
Yoshida rat sarcoma = assay: growth inhibitory effect on Yoshida rat sarcoma cells; type: cell-based; details: for IC50: Rattus norvegicus, YOSHIDA, read-out: Growth Inhibitory Effect IC50
Experimental: (§1) The tumor cell suspension was prepared from cells taken from ascites of rats to which 1×10^6 cells of Yoshida rat sarcoma had been inoculated before 3 to 5 days. The ascites was diluted with a medium which was constituted from 80 to 90% (v/v) Fischer's solution containing 20 to 10% (v/v) desensitized horse serum. One half milliliter of the cell suspension containing 5~20×10^4 cells thus prepared was placed in a small test tube. A substance to be tested was dissolved and diluted with the same medium and 0.5 ml of the diluted solution was added to the cell suspension. To the control tube was added 0.5 ml of the medium. 2 to 5 tubes were used for each experimental units. They were incubated statically at 37° C. for 2 to 3 days. After the incubation, growth was measured by observing the quantity of precipitated cells on the bottom of the test tube with the naked eyes. Growth inhibitory effect of a substance was expressed by the concentration pointing 50 percent growth of the control growth.
IC50 : The concentration pointing 50% growth of the control growth.

P-388 Mice Leukemia = assay: therapeutic effect against P-388 Mice Leukemia; type: in vivo; details: daily on days 1 to 5, 1×10^6 P-388 cells intraperitoneally
Experimental: (§2) The test was conducted in accordance with the method described in Cancer Chemotherapy Reports, Part 3, Vol. 3, No. 2, p. 9, September 1972. Mice inoculated intraperitoneally with 1×10^6 cells of P-388 were administered with the test compounds daily on days 1 to 5. The activity (T/C) of the test compounds is represented by the ratio of the median survival time of the treated group to that of the control group.

Escherichia coli W3110 = assay: minimum inhibitory concentration (MIC) by the agar dilution method, Escherichia coli W3110; type: cell-based; details: Brain heart infusion agar, 18 hrs after inoculation
Experimental: (§3) The minimum inhibitory concentration (MIC) of the FA-118O A, A1, B or B1 was determined by the agar dilution method, and the results are indicated in Table 5 below.
(§4) (1) Medium: Brain heart infusion agar
(§5) (2) Determined: 18 hrs after inoculation

[1] = test system: Staphylococcus aureus 209 P; assay: minimum inhibitory concentration (MIC) by the agar dilution method, Staphylococcus aureus 209 P; type: cell-based; details: Brain heart infusion agar, 18 hrs after inoculation
Experimental: as §3, §4, §5

Gram-positive bacteria = assay: ability to inhibit the growth of Gram-positive bacteria (summary statement); type: cell-based; details: summary in words
Experimental: as §3

Solubility = type: physicochemical
Bacillus subtilis 45 T = assay: minimum inhibitory concentration (MIC) by the agar dilution method, Bacillus subtilis 45 T; type: cell-based; details: Brain heart infusion agar, 18 hrs after inoculation
Experimental: as §3, §4, §5

Escherichia coli P3478 = assay: minimum inhibitory concentration (MIC) by the agar dilution method, Escherichia coli P3478; type: cell-based; details: Brain heart infusion agar, 18 hrs after inoculation
Experimental: as §3, §4, §5

tumor = assay: antitumor activity (summary statement); details: summary in words
Experimental: as §2, §1

Staphylococcus aureus = assay: minimum inhibitory concentration (MIC) by the agar dilution method, Staphylococcus aureus; type: cell-based; details: Brain heart infusion agar, 18 hrs after inoculation
Experimental: as §3, §4, §5

[2] = test system: Salmonella typhimurium IFO 12529; assay: minimum inhibitory concentration (MIC) by the agar dilution method, Salmonella typhimurium IFO 12529; type: cell-based; details: Brain heart infusion agar, 18 hrs after inoculation
Experimental: as §3, §4, §5

Escherichia coli NIHJ = assay: minimum inhibitory concentration (MIC) by the agar dilution method, Escherichia coli NIHJ; type: cell-based; details: Brain heart infusion agar, 18 hrs after inoculation
Experimental: as §3, §4, §5

Bacillus cereus IAM 1729 = assay: minimum inhibitory concentration (MIC) by the agar dilution method, Bacillus cereus IAM 1729; type: cell-based; details: IAM1729, Brain heart infusion agar, 18 hrs after inoculation
Experimental: as §3, §4, §5

Pseudomonas aeruginosa H = assay: minimum inhibitory concentration (MIC) by the agar dilution method, Pseudomonas aeruginosa H; type: cell-based; details: Brain heart infusion agar, 18 hrs after inoculation
Experimental: as §3, §4, §5

Candida albicans = assay: minimum inhibitory concentration (MIC) by the agar dilution method, Candida albicans; type: cell-based; details: Brain heart infusion agar, 18 hrs after inoculation
Experimental: as §3, §4, §5

[3] = test system: Bacillus subtilis PCI 219; assay: minimum inhibitory concentration (MIC) by the agar dilution method, Bacillus subtilis PCI 219; type: cell-based; details: Brain heart infusion agar, 18 hrs after inoculation
Experimental: as §3, §4, §5

Bacillus subtilis 17 A = assay: minimum inhibitory concentration (MIC) by the agar dilution method, Bacillus subtilis 17 A; type: cell-based; details: Brain heart infusion agar, 18 hrs after inoculation
Experimental: as §3, §4, §5

[4] = test system: Serratia marcescens IFO 12648; assay: minimum inhibitory concentration (MIC) by the agar dilution method, Serratia marcescens IFO 12648; type: cell-based; details: 18 hrs after inoculation
Experimental: as §3, §4, §5

[5] = test system: Klebsiella pneumoniae IFO 3512; assay: minimum inhibitory concentration (MIC) by the agar dilution method, Klebsiella pneumoniae IFO 3512; type: cell-based; details: 18 hrs after inoculation
Experimental: as §3, §4, §5

[6] = Salmonella enterica, read-out: MIC
[7] = concentration pointing 50% growth of the control growth, 37° C., 2 to 3 days, Fischer's solution with horse serum
[8] = Bacillus subtilis, PCI219, 18 h, read-out: MIC
[9] = IFO12648, Brain heart infusion agar, read-out: MIC
[10] = IFO3512, Brain heart infusion agar, read-out: MIC

SMILES | Activity (T/C), ratio of median survival time of treated group to control group (P-388 Mice Leukemia; 0.25 mg/kg/day) [%] | Activity (T/C), ratio of median survival time of treated group to control group (P-388 Mice Leukemia; 0.5 mg/kg/day) [%] | Activity (T/C), ratio of median survival time of treated group to control group (P-388 Mice Leukemia; 1.0 mg/kg/day) [%] | MIC (Escherichia coli W3110; read-out: MIC) [µg/mL] | MIC ([1]; read-out: MIC) [µg/mL] | ability to inhibit the growth of Gram-positive bacteria (Gram-positive bacteria) | Solubility in chloroform (Solubility) | Solubility in methanol (Solubility) | Solubility in n-hexane (Solubility) | MIC (Bacillus subtilis 45 T; read-out: MIC) [µg/mL] | MIC (Escherichia coli P3478; read-out: MIC) [µg/mL] | antitumor activity (tumor) | MIC (Staphylococcus aureus; read-out: MIC) [µg/mL] | MIC [2, 6] [µg/mL] | MIC (Escherichia coli NIHJ; read-out: MIC) [µg/mL] | MIC (Bacillus cereus IAM 1729) [µg/mL] | MIC (Pseudomonas aeruginosa H; read-out: MIC) [µg/mL] | MIC (Candida albicans; read-out: MIC) [µg/mL] | MIC [3, 8] [µg/mL] | Growth Inhibitory Effect IC50 (Yoshida rat sarcoma; [7]) | also measured
COc1cccc2c1C(=O)c1c(O)c3c(c(O)c1C2=O)C[C@@](O)(C(=O)CO)C[C@@H]3O[C@H]1C[C@H](N)[C@H](O)[C@H](C)O1 [Adriamycin hydrochloride, reference compound] | – | – | – | – | – | – | – | – | – | – | – | – | – | – | – | – | – | – | – | – | IC50 (Yoshida rat sarcoma): 0.01 µg/mL
O=c1[nH]cc(F)c(=O)[nH]1 [5-FU, reference compound] | – | – | – | – | – | – | – | – | – | – | – | – | – | – | – | – | – | – | – | – | Activity (T/C), ratio of median survival time of treated group to control group (P-388 Mice Leukemia; 20 mg/kg/day): 198%
CC(O)CC(OC(C)CO)OC1C(N)CC(OC2CC(O)(C(C)O)Cc3c(O)c4c(c(O)c32)C(=O)c2c(O)cccc2C4=O)OC1C (centres unmarked) [FA-1180 B] | 143 | 162 | 190 | > 100 | 50 (≈ 75.6 µM) | strong ability to inhibit the growth of Gram-positive bacteria | soluble | freely soluble | slightly soluble | 0.4 (≈ 0.605 µM) | > 100 | antitumor activity | 50 (≈ 75.6 µM) | > 100 | > 100 | 25 (≈ 37.8 µM) | > 100 | > 100 | 6.25 (≈ 9.45 µM) | – | IC50 (Yoshida rat sarcoma; [7]): 0.01 µg/mL (≈ 0.0151 µM); MIC (Bacillus subtilis 17 A; read-out: MIC): 12.5 µg/mL (≈ 18.9 µM); MIC [4, 9]: > 100 µg/mL; MIC [5, 10]: > 100 µg/mL
CC(=O)C1(O)Cc2c(O)c3c(c(O)c2C(OC2CC(N)C(OC(CC(C)O)OC(C)CO)C(C)O2)C1)C(=O)c1c(O)cccc1C3=O (centres unmarked) [FA-1180 A1] | – | – | – | – | – | strong ability to inhibit the growth of Gram-positive bacteria | – | – | – | – | – | antitumor activity | – | – | – | – | – | – | – | 10^-3 μg/ml | MIC (Escherichia coli W3110): > 100 ppm; MIC [1]: 12.5 ppm; MIC (Bacillus subtilis 45 T): < 0.2 ppm; MIC (Escherichia coli P3478): > 100 ppm; MIC (Staphylococcus aureus): 12.5 ppm; MIC [2]: > 100 ppm; MIC (Escherichia coli NIHJ): > 100 ppm; MIC (Pseudomonas aeruginosa H): > 100 ppm; MIC (Candida albicans): > 100 ppm; MIC [3]: 1.56 ppm; MIC (Bacillus subtilis 17 A): 1.56 ppm; MIC ([4]; Brain heart infusion agar): > 100 ppm; MIC ([5]; Brain heart infusion agar): > 100 ppm
CC(=O)C1(O)Cc2c(O)c3c(c(O)c2C(OC2CC(N)C(OC(CC(C)O)OC(C)CO)C(C)O2)C1)C(=O)c1c(O)cccc1C3=O (centres unmarked) [FA-1180 A] | 148 | 167 | 205 | > 100 | 12.5 (≈ 18.9 µM) | strong ability to inhibit the growth of Gram-positive bacteria | soluble | freely soluble | slightly soluble | < 0.2 | > 100 | antitumor activity | 12.5 (≈ 18.9 µM) | > 100 | > 100 | 3.12 (≈ 4.74 µM) | > 100 | > 100 | 1.56 (≈ 2.36 µM) | 10^-2 μg/ml | MIC (Bacillus subtilis 17 A; read-out: MIC): 1.56 µg/mL (≈ 2.36 µM); MIC [4, 9]: > 100 µg/mL; MIC [5, 10]: > 100 µg/mL
CC(O)CC(OC(C)CO)OC1C(N)CC(OC2CC(O)(C(C)O)Cc3c(O)c4c(c(O)c32)C(=O)c2c(O)cccc2C4=O)OC1C (centres unmarked) [FA-1180 B1] | 151 | 168 | 179 | – | – | strong ability to inhibit the growth of Gram-positive bacteria | – | – | – | – | – | antitumor activity | – | – | – | – | – | – | – | 10^-2 μg/ml | MIC (Escherichia coli W3110): > 100 ppm; MIC [1]: 50 ppm; MIC (Bacillus subtilis 45 T): 0.4 ppm; MIC (Escherichia coli P3478): > 100 ppm; MIC (Staphylococcus aureus): 50 ppm; MIC [2]: > 100 ppm; MIC (Escherichia coli NIHJ): > 100 ppm; MIC (Pseudomonas aeruginosa H): > 100 ppm; MIC (Candida albicans): > 100 ppm; MIC [3]: 3.125 ppm; MIC (Bacillus subtilis 17 A): 12.5 ppm; MIC ([4]; Brain heart infusion agar): > 100 ppm; MIC ([5]; Brain heart infusion agar): > 100 ppm
